Usually melting point stands for the temperature, or range, at which the solid turns liquid.

Results on 2 molecules are retold here after patent US7186830B2, “Tricyclic 2-pyrimidone compounds useful as HIV reverse transcriptase inhibitors” (Bristol-Myers Squibb Company, priority 2002, dated 2007).

As to `Cc1nc2c(c(=O)[nH]1)Nc1ccc(C#N)cc1C2(COC(C)C)C(F)(F)F` (centres unmarked) [Example 7, 8-Cyano-10-(isopropoxymethyl)-2-methyl-10-(trifluoromethyl)-5,10-dihydropyrimido[5,4-b]quinolin-4(3H)-one], the melting point was 277.3 to 278.1 °C (dec.).

Take `N#Cc1ccc2c(c1)C(CCC1CC1)(C(F)(F)F)c1nc[nH]c(=O)c1N2` (centres unmarked) [Example 9, 8-Cyano-10-(2-cyclopropylethyl)-10-(trifluoromethyl)-5,10-dihydropyrimido[5,4-b]quinolin-4(3H)-one]: the melting point was greater than 280 °C.
